PubChem BioAssay (NCI)
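Abbreviation: GI50, concentration required for 50% inhibition of growth. Definition used: TGI = concentration required for complete inhibition of growth.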

Assays:
Assay in all cases: NCI anticancer screen, dose series, 384-well format
[1] = system: OVCAR-5 ovarian
[2] = system: MDA-MB-231 breast
[3] = system: HCC-2998 colon
[4] = system: SK-MEL-28 melanoma
[5] = system: NCI-H322M lung
[6] = system: M14 melanoma
[7] = system: NCI-H23 lung
[8] = system: TK-10 renal
[9] = system: A498 renal
[10] = system: CAKI-1 renal
[11] = system: MCF7 breast
[12] = system: SNB-75 CNS
[13] = system: SK-MEL-5 melanoma
[14] = system: HCT-116 colon
[15] = system: NCI-H522 lung
[16] = system: SF-295 CNS
[17] = system: RPMI-8226 leukemia
[18] = system: SK-OV-3 ovarian
[19] = system: KM12 colon
[20] = system: MDA-MB-435 melanoma
[21] = system: HL-60(TB) leukemia
[22] = system: UACC-257 melanoma
[23] = system: EKVX NSCLC
[24] = system: NCI-H460 NSCLC
[25] = system: LOX IMVI melanoma
[26] = system: PC-3 prostate
[27] = system: A549 NSCLC
[28] = system: MOLT-4 leukemia
[29] = system: NCI-H226 lung
[30] = system: MALME-3M melanoma
[31] = system: RXF 393 renal
[32] = system: SN12C renal
[33] = system: DU-145 prostate
[34] = system: SNB-19 CNS
[35] = system: BT-549 breast
[36] = system: SF-268 CNS
[37] = system: SR leukemia
[38] = system: HOP-62 NSCLC
[39] = system: HS 578T breast
[40] = system: OVCAR-8 ovarian
[41] = system: U251 glioblastoma
[42] = system: T-47D breast
[43] = system: NCI/ADR-RES ovarian
[44] = system: HOP-92 NSCLC
[45] = system: SF-539 CNS
[46] = system: OVCAR-3 ovarian
[47] = system: OVCAR-4 ovarian
[48] = system: HCT-15 colon
[49] = system: ACHN renal
[50] = system: IGROV1 ovarian
[51] = system: MDA-MB-468 breast
[52] = system: HT29 colon
[53] = system: UACC-62 melanoma
[54] = system: COLO 205 colon

Cn1ncc(Cl)c1-c1cc(C(=O)N[C@H](CN)Cc2cccc(F)c2)sc1Cl
GI50 [1]: 1620 nM
TGI [1]: 4290 nM
GI50 [2]: 5950 nM
TGI [2]: 18800 nM
GI50 [3]: 558 nM
TGI [3]: 2010 nM
GI50 [4]: 1330 nM
TGI [4]: 2670 nM
GI50 [5]: 2150 nM
TGI [5]: 10900 nM
GI50 [6]: 1710 nM
TGI [6]: 3150 nM
GI50 [7]: 3200 nM
TGI [7]: 11700 nM
GI50 [8]: 1180 nM
TGI [8]: 5470 nM
GI50 [9]: 126 nM
TGI [9]: 1240 nM
GI50 [10]: 2760 nM
TGI [10]: 14000 nM
GI50 [11]: 460 nM
TGI [11]: 2000 nM
GI50 [12]: 449 nM
TGI [12]: 3660 nM
GI50 [13]: 1390 nM
TGI [13]: 2700 nM
GI50 [14]: 2280 nM
TGI [14]: 7530 nM
GI50 [15]: 1900 nM
TGI [15]: 5360 nM
GI50 [16]: 1070 nM
TGI [16]: 2330 nM
GI50 [17]: 1760 nM
TGI [17]: 3180 nM
GI50 [18]: 737 nM
TGI [18]: 8040 nM
GI50 [19]: 532 nM
TGI [19]: 2210 nM
GI50 [20]: 2010 nM
TGI [20]: 5430 nM
GI50 [21]: 1320 nM
TGI [21]: 2700 nM
GI50 [22]: 1460 nM
TGI [22]: 2790 nM
GI50 [23]: 2940 nM
TGI [23]: 12500 nM
GI50 [24]: 427 nM
TGI [24]: 2670 nM
GI50 [25]: 1750 nM
TGI [25]: 3230 nM
GI50 [26]: 300 nM
TGI [26]: 2690 nM
GI50 [27]: 4010 nM
TGI [27]: 16400 nM
GI50 [28]: 150 nM
TGI [28]: 1120 nM
GI50 [29]: 2930 nM
TGI [29]: 9220 nM
GI50 [30]: 1300 nM
TGI [30]: 2590 nM
GI50 [31]: 680 nM
TGI [31]: 2560 nM
GI50 [32]: 2670 nM
TGI [32]: 14400 nM
GI50 [33]: 3380 nM
TGI [33]: 14600 nM
GI50 [34]: 1740 nM
TGI [34]: 10200 nM
GI50 [35]: 819 nM
TGI [35]: 2450 nM
GI50 [36]: 4500 nM
TGI [36]: 15300 nM
GI50 [37]: 1350 nM
TGI [37]: 2640 nM
GI50 [38]: 2310 nM
TGI [38]: 6220 nM
GI50 [39]: 1010 nM
TGI [39]: 2560 nM
GI50 [40]: 2110 nM
TGI [40]: 5320 nM
GI50 [41]: 1110 nM
TGI [41]: 2430 nM
GI50 [42]: 274 nM
TGI [42]: 2050 nM
GI50 [43]: 7070 nM
TGI [43]: 19900 nM
GI50 [44]: 2090 nM
TGI [44]: 8600 nM
GI50 [45]: 337 nM
TGI [45]: 2140 nM
GI50 [46]: 2020 nM
TGI [46]: 10500 nM
GI50 [47]: 6000 nM
TGI [47]: 18900 nM
GI50 [48]: 1760 nM
TGI [48]: 13100 nM
GI50 [49]: 3460 nM
TGI [49]: 15500 nM
GI50 [50]: 43.6 nM
TGI [50]: 534 nM
GI50 [51]: 187 nM
TGI [51]: 1950 nM
GI50 [52]: 1150 nM
TGI [52]: 2890 nM
GI50 [53]: 1290 nM
TGI [53]: 2970 nM
GI50 [54]: 1120 nM
TGI [54]: 2360 nM
